{"source": "patent US20080103198A1", "about": "“METHODS FOR TREATMENT OF COCHLEAR AND VESTIBULAR DISORDERS” (priority 2006, published 2008)", "key": {"[1]": {"system": "Li-Pilo SE", "assay": "Lithium-pilocarpine model (Example 2): quantification of cell densities", "assay_type": "in vivo, rat", "method": "Quantification of cell densities was performed at two times after SE: a first group was studied 14 days after SE and was composed by 7 DZP, 8 RWJ30, 11 RWJ60, 10 RWJ90, 8 RWJ120 and 8 control rats not subjected to SE. A second group used for the study of the latency to SRS was sacrificed either 8 weeks after the first SRS or at 5 months when no SRS could be seen in that delay and was composed by 7 DZP, 2 RWJ30, 3 RWJ60, 3 RWJ90, 4 RWJ120 rats. Animals were deeply anesthetized with 1.8 g/kg pentobarbital (Dolethal®, Vétoquinol, Lure, France). Brains were then removed and frozen. Serial 20 μm slices were cut in a cryostat, air-dried during several days before thionine staining. Quantification of cell densities was performed with a 10×10 boxes 1 cm^2 microscopic grid on coronal sections according to the stereotaxic coordinates of the rat brain atlas (Paxinos and Watson, 1986, The Rat Brain in Stereotaxic coordinates, 2nd ed. Academic Press, San Diego). The grid of counting was placed on a well-defined area of the cerebral structure of interest and counting was carried out with a microscopic enlargement of 200- or 400-fold defined for each single cerebral structure. Cell counts were performed twice on each side of three adjacent sections for each region by a single observer unaware of the animal's treatment. The number of cells obtained in the 12 counted fields in each cerebral structure was averaged. This procedure was used to minimize the potential errors that could result from double counting leading to overestimation of cell numbers. […] Counts involved only neurons with cell bodies larger than 10 μm. Cells with small cell bodies were considered as glial cells and were not counted.\nFor neuronal damage, statistical analysis between groups was performed by means of a one-way analysis of variance followed by a post-hoc Scheffe's test using the Statview software."}, "[2]": {"system": "Li-pilo induced SE", "assay": "Lithium-pilocarpine model of temporal lobe epilepsy (Example 1): mortality and spontaneous recurrent seizures", "assay_type": "in vivo, rat", "text": "The model induced in rats by pilocarpine associated with lithium (Li-Pilo) reproduces most of the clinical and neurophysiological features of human temporal lobe epilepsy (Turski et al., 1989, Synapse 3:154-171; Cavalheiro, 1995, Ital J Neurol Sci 16:33-37). In adult rats, the systemic administration of pilocarpine leads to status epilepticus (SE). The lethality rate reaches 30-50% during the first days. In the surviving animals, neuronal damage predominates within the hippocampal formation, the piriform and entorhinal cortices, thalamus, amygdaloid complex, neocortex and substantia nigra.\nMale Wistar rats weighing 225-250 g, provided by Janvier Breeding Center (Le Genest-St-lste, France) were housed under controlled standard conditions (light/dark cycle, 7.00 a.m.-7.00 p.m. lights on), with food and water available ad libitum. All animal experimentation was performed in accordance with the rules of the European Communities Council Directive of Nov. 24, 1986 (86/609/EEC), and the French Department of Agriculture (License No 67-97). For electrode implantation, rats were anesthetized by an i.p. injection of 2.5 mg/kg diazepam (DZP, Valium, Roche, France) and […] ketamine chlorhydrate (Imalgene 1000, Rhone Merrieux, France). Four single-contact recording electrodes were placed on the skull, over the parietal cortex, two on each side.\nAll rats received lithium chloride (3 meq/kg, i.p., Sigma, St Louis, Mo., U.S.A.); about 20 h later, animals were placed into plexiglas boxes, in order to record baseline cortical EEG. Methylscopolamine bromide (1 mg/kg, s.c., Sigma) was administered to limit the peripheral effects of the convulsant. SE was induced by injecting pilocarpine hydrochloride (25 mg/kg, s.c., Sigma) 30 min after methyl-scopolamine. The bilateral EEG cortical activity was recorded during the whole duration of SE and behavioral changes were noted.\nThe effects of increasing doses of the test compound were studied on 3 groups of rats. The animals of the first group received 10 mg/kg of the test compound, i.p., 1 h after the onset of SE (pilo-test10) while the animals of groups 2 and 3 received 30 and 60 mg/kg of the test compound (pilo-test30 and pilo-test60), respectively.\nAnother group was injected with 2 mg/kg diazepam (DZP, i.m.) at 1 h after the onset of SE which are our standard treatment to improve animals survival after SE (pilo-DZP). The control group received saline instead of pilocarpine and the test compound (saline-saline). The pilo-test compound rats surviving SE were then injected about 10 h after the first test compound injection with a second i.p. injection of the same dose of the test compound and were maintained under a twice daily treatment with the test compound for 6 additional days. Pilo-DZP received a second injection of 1 mg/kg DZP on the day of SE at about 10 h after the first one. Thereafter, Pilo-DZP and saline-saline rats received twice daily an equivalent volume of saline.\nThe effects of the test compound on the EEG and on the latency to occurrence of SRS were investigated by daily video recording of the animals for 10 h per day and the recording of the electrographic activity twice a week for 8 h.\nFor the comparison of the characteristics of SE in pilo-saline and pilo-test compound animals, a non-paired Student's t-test was used. The comparison between the number of rats seizing in both groups was performed by means of a Chi square test. For neuronal damage, statistical analysis between groups was performed using ANOVA followed by a Fisher's test for multiple comparisons using the Statview software (Fisher R A, 1946a, Statistical Methods for Research Workers (10th edition) Oliver & Boyd, Edinburgh; Fisher R A, 1946b, The Design of Experiments (4th edition) Oliver & Boyd, Edinburgh) Behavioral and EEG characteristics of lithium-pitocarpine status epilepticus"}, "[3]": {"details": "14 days after SE, DZP 2.5 mg/kg i.m., mean ± S.E.M."}, "[4]": {"details": "DZP vs control rats, 14 days after SE"}}}
{"smiles": "CN1C(=O)CN=C(c2ccccc2)c2cc(Cl)ccc21", "note": "[DZP, diazepam, reference compound]", "values": [{"measurement": "number of neuronal cell bodies, Dorsal entorhinal, layer II", "setting": "[1]; [3]", "result": "23.5 ± 0.7"}, {"measurement": "number of neuronal cell bodies, Dorsal entorhinal, layer III", "setting": "[1]; [3]", "result": "22.3 ± 0.5"}, {"measurement": "number of neuronal cell bodies, Piriform, layer II, dorsal", "setting": "[1]; [3]", "result": "12.6 ± 4.2"}, {"measurement": "number of neuronal cell bodies, Piriform, layer II, ventral", "setting": "[1]; [3]", "result": "3.6 ± 0.7"}, {"measurement": "number of neuronal cell bodies, Piriform, layer III", "setting": "[1]; [3]", "result": "1.2 ± 1.2"}, {"measurement": "number of neuronal cell bodies, Ventral entorhinal, layer II", "setting": "[1]; [3]", "result": "21.7 ± 1.3"}, {"measurement": "number of neuronal cell bodies, Ventral entorhinal, layers III-IV", "setting": "[1]; [3]", "result": "7.7 ± 2.3"}, {"measurement": "number of neuronal cell bodies, hippocampus CA1 area", "setting": "[1]; [3]", "result": "10.9 ± 1.9"}, {"measurement": "number of neuronal cell bodies, hippocampus CA3 area", "setting": "[1]; [3]", "result": "31.3 ± 2.9"}, {"measurement": "number of neuronal cell bodies, hippocampus Hilus", "setting": "[1]; [3]", "result": "33.5 ± 3.0"}, {"measurement": "damage, entorhinal cortex dorsal layers II and III/IV and ventral layer II", "setting": "[1]; DZP group", "result": "18-24%"}, {"measurement": "cell loss, CA1 pyramidal cell layer", "setting": "[1]; [4]", "result": 85, "unit": "%"}, {"measurement": "cell loss, CA3", "setting": "[1]; [4]", "result": 40, "unit": "%"}, {"measurement": "cell loss, hilus of dentate gyrus", "setting": "[1]; [4]", "result": 66, "unit": "%"}, {"measurement": "cell loss, piriform cortex dorsal layer II", "setting": "[1]; [4]", "result": 66, "unit": "%"}, {"measurement": "cell loss, piriform cortex layer III", "setting": "[1]; [4]", "result": 94, "unit": "%"}, {"measurement": "cell loss, piriform cortex ventral layer II", "setting": "[1]; [4]", "result": 89, "unit": "%"}, {"measurement": "damage, dorsal entorhinal cortex layer II", "setting": "[1]; [4]", "result": 18, "unit": "%"}, {"measurement": "damage, dorsal entorhinal cortex layers III-IV", "setting": "[1]; [4]", "result": 24, "unit": "%"}, {"measurement": "damage, ventral entorhinal cortex layer II", "setting": "[1]; [4]", "result": 22, "unit": "%"}, {"measurement": "damage, ventral entorhinal cortex layers III/IV", "setting": "[1]; [4]", "result": 74, "unit": "%"}, {"measurement": "mortality during the first 48 h after SE", "setting": "[2]; DZP 2 mg/kg i.m. 1 h after SE onset", "result": 23, "unit": "%"}, {"measurement": "latency to SRS", "setting": "[2]; DZP 2 mg/kg i.m., n=9", "result": "18.2 ± 6.9", "unit": "days"}, {"measurement": "frequency of stage IV-V SRS", "setting": "[2]; DZP, first week", "result": 11.3, "unit": "SRS per week"}]}
